Entries after “also recorded” stand apart in the source; their conditions may differ.
Key:
[1] = tested on: db/db mice; experiment: HbA1c and blood glucose after 54 day treatment of db/db mice (SU secondary drug failure model); assay type: in vivo, mouse; settings: 3 mg/kg p.o. daily, day 54, female db/db mice; for glucose values compared to control: semi-fed
Description: Sulfonylurea (SU) like glibenclamide are one of the most frequently used drugs in diabetes treatment. Long-term treatment with SU causes elevated basal insulin secretion and decreased glucose-stimulated insulin secretion. These characteristics may play an important role for the development of hypoglycemia and secondary drug failure. […] In addition, correlating with age of the animals pancreatic β-cells of aging db/db mice fails to compensate the high glucose excursion with enhanced insulin secretion. Therefore this model is appropriate to study the glibenclamide induced secondary drug failure in comparison to a DPP-4 inhibitor (e.g. BI 1356). Female db/db mice at 5 weeks of age, are obtained from Charles River, Germany. Animals are housed in groups of 5-6 animals under a 12:[…] cycle (lights on at 04:00 AM and lights off at 04:00 PM) in temperature and humidity controlled rooms. All animals have free access to regular rodent chow (Altromin standard #1324 chow, Denmark) and water ad libitum. The compound solutions are administered daily at 08.00 AM on experimental days 0-59 by per oral gavage using a gastric tube connected to a 3 ml syringe (Luer-lockTM, Becton). Groups of 12 animals are used: vehicle, 0.5% Natrosol; BI 1356 3 mg/kg; glibenclamide 3 mg/kg. Body weight food intake and water intake is recorded daily for the first two and twice weekly for the remaining period. On experimental day 54 blood glucose and HbA1c levels are determined in semi-fed state, on day 59 an OGTT (2 g/kg) is performed. Blood samples for determination of “fed” levels blood glucose and HbA1c are performed at 10.00 AM on day 54. Prior to blood sampling animals are transferred to clean cages with no food two hours before blood sampling. At day 59 an OGTT (2 g/kg) is performed following an over-night fast of the animals and insulin is detected at t=15 min. For each data point, 10 μl blood is drawn from the tip of the tail into a microcapillary tube and measured using a Biosen S line glucose analyzer. HbA1c: are measured using a standard enzyme assay kit on a fully automated analyzer (Bayer).

[2] = tested on: db/db mice; experiment: Insulin during OGTT (2 g/kg) on day 59 in db/db mice; assay type: in vivo, mouse; settings: 3 mg/kg p.o. daily, day 59, OGTT 2 g/kg, t=15 min
Description: Sulfonylurea (SU) like glibenclamide are one of the most frequently used drugs in diabetes treatment. Long-term treatment with SU causes elevated basal insulin secretion and decreased glucose-stimulated insulin secretion. These characteristics may play an important role for the development of hypoglycemia and secondary drug failure. […] In addition, correlating with age of the animals pancreatic β-cells of aging db/db mice fails to compensate the high glucose excursion with enhanced insulin secretion. Therefore this model is appropriate to study the glibenclamide induced secondary drug failure in comparison to a DPP-4 inhibitor (e.g. BI 1356).
Female db/db mice at 5 weeks of age, are obtained from Charles River, Germany. […]
The compound solutions are administered daily at 08.00 AM on experimental days 0-59 by per oral gavage using a gastric tube connected to a 3 ml syringe (Luer-lock™, Becton). […] Body weight food intake and water intake is recorded daily for the first two and twice weekly for the remaining period. On experimental day 54 blood glucose and HbA1c levels are determined in semi-fed state, on day 59 an OGTT (2 g/kg) is performed.
Blood samples for determination of “fed” levels blood glucose and HbA1c are performed at 10.00 AM on day 54. […] At day 59 an OGTT (2 g/kg) is performed following an over-night fast of the animals and insulin is detected at t=15 min. […]

Structure (SMILES) | HbA1c compared to control [1] | glucose values compared to control [1] | increase in insulin during OGTT [2] | form and route of excretion (human, in vivo) | excretion via the kidney (therapeutic oral dose levels)
CC#CCn1c(N2CCC[C@@H](N)C2)nc2c1c(=O)n(Cc1nc(C)c3ccccc3n1)c(=O)n2C [BI 1356] | improves; also recorded: superior to glibenclamide | improves; also recorded: superior to glibenclamide | able to respond to the increased glucose levels with an up-regulation of insulin; also recorded: superior to glibenclamide | primarily excreted unchanged via the bile | < 7 % of the administered oral dose
COc1ccc(Cl)cc1C(=O)NCCc1ccc(S(=O)(=O)NC(=O)NC2CCCCC2)cc1 [glibenclamide, reference compound] | impairs | impairs | – | – | –

— patent publication US11911388B2, “Treatment for diabetes in patients with insufficient glycemic control despite therapy with an oral or non-oral antidiabetic drug” (Boehringer Ingelheim International GmbH, priority 2008, dated 2024)
